Results on one compound are retold here after ChEMBL document CHEMBL3638950, “Imidazo[5,1-f][1,2,4]triazines for the treatment of neurological disorders” (2013).

pIC50: −log10 of the molar value.

This test deals with cGMP-dependent 3',5'-cyclic phosphodiesterase (Homo sapiens, UniProt O00408). Briefly: Inhibition Assay: The activity of the test substances on human full-length PDE2A3 enzyme was determined using the [3H]-cGMP scintillation proximity assay (SPA) modified from the Amersham TRKQ7100 instructions (GE Healthcare, USA). In general terms: SPA uses beads or plates that emit light when radiolabelled molecules are held near them.
Chain of cGMP-dependent 3',5'-cyclic phosphodiesterase (O00408 whole entry): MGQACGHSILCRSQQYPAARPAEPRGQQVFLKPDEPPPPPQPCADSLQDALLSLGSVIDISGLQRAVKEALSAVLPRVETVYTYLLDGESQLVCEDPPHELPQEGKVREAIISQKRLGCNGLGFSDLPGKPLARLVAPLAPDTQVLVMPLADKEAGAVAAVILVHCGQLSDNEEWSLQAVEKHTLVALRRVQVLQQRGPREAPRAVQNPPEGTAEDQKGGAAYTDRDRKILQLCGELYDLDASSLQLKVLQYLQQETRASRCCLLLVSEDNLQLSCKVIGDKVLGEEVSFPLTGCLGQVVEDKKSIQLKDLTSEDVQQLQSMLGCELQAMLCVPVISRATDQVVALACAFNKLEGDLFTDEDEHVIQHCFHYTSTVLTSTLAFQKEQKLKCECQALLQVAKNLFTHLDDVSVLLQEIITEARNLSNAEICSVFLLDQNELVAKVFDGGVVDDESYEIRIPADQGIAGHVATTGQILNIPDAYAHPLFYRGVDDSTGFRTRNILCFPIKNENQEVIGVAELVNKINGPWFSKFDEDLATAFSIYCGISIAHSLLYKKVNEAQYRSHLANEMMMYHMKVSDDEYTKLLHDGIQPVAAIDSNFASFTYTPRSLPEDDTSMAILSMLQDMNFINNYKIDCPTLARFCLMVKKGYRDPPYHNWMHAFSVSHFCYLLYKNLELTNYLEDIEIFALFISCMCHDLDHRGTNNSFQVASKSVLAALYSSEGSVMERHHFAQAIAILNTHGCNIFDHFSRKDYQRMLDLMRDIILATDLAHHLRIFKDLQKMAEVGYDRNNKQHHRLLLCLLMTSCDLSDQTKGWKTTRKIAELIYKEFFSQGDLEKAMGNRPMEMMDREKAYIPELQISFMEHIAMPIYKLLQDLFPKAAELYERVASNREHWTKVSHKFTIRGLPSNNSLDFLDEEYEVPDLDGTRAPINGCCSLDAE

Turning to `Cc1nc(-c2cnn(C)c2-c2ccc(C(F)(F)F)cc2)c2c(N3CC(F)C3)ncnn12`, the pIC50 (usually the IC50 on a negative log10 scale, so that one unit is a factor of ten) is 9.20.
